Converted amounts (≈) assume the structure as drawn. Like-named read-outs stand apart in the source and are kept apart here.
How the values were obtained:
[1] = pH-dependent aqueous solubility (UV spectrophotometry); assay type: physicochemical; conditions: aqueous buffer, thermodynamic from solid, 37 °C
Method: A stock solution of the target compound was prepared by dissolving 1 mg in methanol, and the wavelength of greatest absorption of each compound was obtained by scanning between wavelengths from 200 nm to 500 nm. Six dilutions were prepared from the stock solution and the absorbance reading in the UV spectrophotometer (SpectraMax M5, Molecular Devices, USA). The calibration curve with linear regression was created with the values obtained, and the solubility test was measured by correlating the concentration with the absorbance obtained by ultraviolet. Each compound was added in excess at phosphate buffer solution pH 5.8 and 7.4 to obtain a supersaturated solution that was kept under stirring for 4 h at 37 °C and then was filtered through a 0.45 µm filter for reading at the corresponding wavelengths. The solubility was determined through the equation of the straight line obtained by the linear regression of the calibration curve of the compounds [24, 25].

[2] = system: PI3K activation and phosphorylation in MOLT-4 cell line; experiment: Muse PI3K Activation Dual Detection Kit; assay type: cell-based, human; conditions: MOLT-4, concentration 10 times lower than its CC50
Method: The methodology evaluates the activation and phosphorylation of PI3K and was performed from the labelling with the Guava Muse Luminex® PI3K Activation Dual Detection Kit (catalog n^o. MCH200103, Luminex) containing the anti-AKT/PKB-PECy5 antibody to measure total PI3K and the anti-phospho-AKT (Ser473)-Alexa Fluor® 555 antibody for measurement of activated PI3K.
Following 48 h of incubation in an incubator at 37 °C with 5% CO2, 1 mL of the cell solution was transferred to an Eppendorf tube, washed with PBS and centrifuged at 300× g for 5 min. The supernatant was discarded, and the pellet formed was resuspended in 500 µL of PBS. The samples were again centrifuged at 300× g for 5 min and the supernatant discarded.
Then the cell solutions were resuspended in 200 µL of assay buffer (Part no. CS202124), followed by the addition of 200 µL of fixation buffer (Part n^o. CS202122), ending up with a total volume of 400 µL per sample. The samples were incubated for 5 min on ice and centrifuged at 300× g for 5 min and the supernatant discarded.
Cells were permeabilized by adding 200 µL of ice-cold permeabilization buffer (Part n^o. CS202125) and then incubated on ice for 5 min and centrifuged at 300× g for 5 min, and the supernatant was discarded. The formed pellets were resuspended in 450 µL of assay buffer and vortexed at medium speed. In total, 90 µL of the solution from each sample was aliquoted into a new tube, and 10 µL of the cocktail solution containing Anti-phospho-Akt (Ser473), Alexa Fluor®555 and Anti-Akt/PKB, Pecy5 was added. The samples were homogenised and incubated for 30 min in the dark at room temperature.
After the incubation step, 100 µL of assay buffer was added per sample and centrifuged at 300× g for 5 min, and the supernatant was discarded. The formed pellets were resuspended in 200 µL of assay buffer and vortexed, and the samples were read in Guava Muse Luminex®. Data from three independent experiments performed in duplicate were analysed in the Prism6 program to determine the percentage of cells expressing activated and inactivated PI3K.

[3] = Microsomal metabolic stability; assay type: in vitro ADME; conditions: for Metabolization Rates: 10 μM; for half-life at 10 μM / recovery at 10 µM: rat
Method: To investigate the metabolic stability of LASSBio-2252 (5f), the compound was incubated with rat liver microsomes in the presence and in the absence of the NADPH-generating system. Metabolization rate, half-life (t1/2) and apparent intrinsic clearance (Clapp) were calculated.
The metabolic stability of compound 5f (LASSBio-2252) was studied as previously described, and 1 mg/mL of […] rat microsomes was incubated with compound […] (10 μM) in the presence and in the absence of the cofactor (i.e., NADPH generating system). After mixing and incubation at 37 °C in a shaking water bath for 1 h, 500 µL cold acetonitrile containing the internal standard was added to terminate the reaction at different time intervals (0, 15, 30, 45 and 60 min). After mixing and centrifugation at 10,500× g for 15 min at 4 °C, the supernatant was filtered and then was injected into the HPLC system using a mixture of methanol: water acidified (0.1% formic acid, pH 3.0) (50:50, v/v) as the mobile phase at a flow rate of 1.0 mL/min. After analysing the results, the pharmacokinetic parameters were calculated as microsomal half-life (t1/2) and apparent intrinsic clearance (Clapp).

[4] = system: MCF7 (breast cancer cells); design: method as in Mallon and coworkers [15]; conditions: ref Mallon and coworkers [15]; cited from earlier work
[5] = system: human peripheral blood mononuclear cells (PBMCs); experiment: PBMC viability assay (72 h MTT); assay type: cell-based; conditions: highest concentration studied 50 μM
Method: Donor blood was collected and EDTA (ethylenediamine tetraacetic acid) was added to the sterile laminar flow in a 1:20 ratio. In a 15 mL falcon tube, 4.5 mL of Ficoll gradient was added, and then 9 mL of blood was added over the gradient in a 1:2 ratio. The tubes were centrifuged for 40 min at a speed of 750× g with an acceleration of 2 and a brake of 0. The ring of mononuclear cells formed was collected and added to a new tube.
Tubes with PBMCs were centrifuged in an incomplete RPMI medium for 10 min at 580× g with an acceleration of 8 and a brake of 9. The supernatant was discarded, and the cells were resuspended in 1 mL of RPMI medium supplemented with 20% […]. PBMCs were added to 96-well plates at a concentration of 1 × 10^5 cells per well. […]
After incubation, each well received 20 µL of MTT (5 mg/mL), followed by incubation for 4 h in the CO2 oven and centrifugation for 12 min at 1200× g. The supernatant from each well was taken, and 100 µL of isopropyl alcohol was added to solubilize the formazan crystals. The absorbance of the plates was measured at 570 nm in the Flex Station equipment.

[6] = system: CCRF-CEM (human leukemia cell line); design: method as in Gazi and coworkers [14]; conditions: ref Gazi and coworkers [14]; cited from earlier work
[7] = rat liver microsomes, NADPH-generating system absent
[8] = rat liver microsomes, NADPH-generating system present

c1ccc(N2CCN(c3nc(N4CCCNCC4)nc(N4CCOCC4)n3)CC2)cc1 [5f, 4-(4-(1,4-Diazepan-1-yl)-6-(4-phenylpiperazin-1-yl)-1,3,5-triazin-2-yl)morpholine]
solubility at 4 h ([1]; phosphate buffer pH 5.8 (duodenum), read-out: Solubility pH 5.8): 39.3 µM (≈ 16.7 µg/mL)
solubility at 4 h ([1]; phosphate buffer pH 7.4 (plasma), read-out: Solubility pH 7.4): 42.4 µM (≈ 18 µg/mL)
reduction of PI3K-mediated phosphorylation [2]: 79%
Elimination Rate Constant (k) [3, 7]: 0.0017
Metabolization Rates [3, 7]: 9.09%
Elimination Rate Constant (k) [3, 8]: 0.0015
Metabolization Rates [3, 8]: 2.90%
half-life at 10 μM ([3]; liver microsomes): > 6 h
recovery at 10 µM ([3]; liver microsomes, NADPH-generating system absent): 100%
recovery at 10 µM ([3]; liver microsomes, NADPH-generating system present): 101%
half-life at 10 μM [3, 7]: 6.79 h
half-life at 10 μM [3, 8]: 7.7 h

CN(C)C1CCN(C(=O)c2ccc(NC(=O)Nc3ccc(-c4nc(N5CCOCC5)nc(N5CCOCC5)n4)cc3)cc2)CC1 [Gedatolisib, gedatolisib]
CC50 [4]: 36 nM
Emax (reduction of viability of PBMCs) [5]: 33%
CC50 [6]: 23 nM

Reference: PMC9964390, “Design, Synthesis and Phenotypic Profiling of Simplified Gedatolisib Analogues” (Pharmaceuticals, 2023)
